Measurements from patent publication US12358896B2, “LRRK2 inhibitors and methods of making and using thereof” (DENALI THERAPEUTICS INC., priority 2019, dated 2025).

Legend:
[1] = target: LRRK2 G2019S enzyme (Homo sapiens, UniProt Q5S007, G2019S); assay: LRRK2 G2019S TR-FRET biochemical assay (Biological Example 1); conditions: 134 μM ATP, 5 nM LRRK2, LRRKtide substrate
Protocol: • LRRK2 G2019S enzyme • Substrate (LRRKtide) • ATP • TR-FRET dilution buffer • pLRRKtide antibody • 384-well assay plate • DMSO Enzyme Reaction Conditions • 50 mM Tris pH 7.5, 10 mM MgCl2, 1 mM EGTA, 0.01% Brij-35, 2 mM DTT • 5 nM LRRK2 • 134 μM ATP • 60 minute reaction time • 23° C. reaction temperature • 10 μL total reaction volume Detection Reaction Conditions • 1×TR-FRET dilution buffer • 10 mM EDTA • 2 nM antibody • 23° C. reaction temperature • 10 μL total reaction volume
Compounds are prepared by initially diluting to 1 mM with DMSO. 35 μL of reference compound solution, 35 μL of test compound solution, and 35 μL HPE are successively added to the source plate (384-well assay plate, Labcyte). The plates are centrifuged at 2500 rpm for 1 minute and sealed in foil. POD is used to perform a 3.162 fold serial dilution and 100 nL of reference compound solution, test compound solution, HPE and ZPE are transferred to assay plates. The assay plate is centrifuged at 2500 rpm for 1 minute, and sealed with foil.
To perform the enzyme reaction, 5 μL of LRRKtide substrate and kinase mixture in assay buffer is added to all wells of the assay plate. The plate is centrifuged to concentrate the mixture at the bottom of the wells. The assay plate is incubated at 23° C. for 20 minutes. Following incubation, 5 μL of 2×ATP in assay buffer is added to each well, and plates are centrifuged to concentrate the mixture at the bottom of the wells. The plate is incubated at 23° C. for 60 minutes.
To perform the detection of the reaction, EDTA completely mixed in TR-FRET dilution buffer is added to antibody reagent. 10 μL of detection reagent is added to all wells of each well of the assay plate and the plate is centrifuged to concentrate the mixture at the bottom of the wells. The plate is then incubated at 23° C. for 60 minutes. Plates are read on Perkin Elmer Envision 2104 instrument in TR-FRET mode using a 340 nm excitation filter, 520 nm fluorescence emission filter, and 490 or 495 nm terbium emission filter.

[2] = Metabolic stability in human liver microsomes (Biological Example 2); assay type: in vitro ADME; conditions: hepatic clearance (CLhep) scaled from human liver microsomes, 1 μM, well-stirred model
Protocol: Metabolic stability of select compounds was evaluated in human liver microsomes (from Corning or XenoTech, LLC) using a 96-well plate assay format. Compounds were incubated at 37° C. at 1 μM final concentration in the microsomal matrix (0.5 mg/mL total protein) in the presence or absence of NADPH cofactor. An NADPH regenerating system, comprised of NADP, MgCl2, isocitric acid, and isocitrate dehydrogenase, was used in the assay. Enzymatic reactions were conducted for 0, 5, 10, 20, 30, or 60 min before termination by addition of acetonitrile containing tolbutamide and labetalol internal standards (100 ng/mL). After shaking for 10 min, plates were subjected to centrifugation (4000 rpm at 4° C.) for 20 min and supernatants mixed 1:3 with HPLC grade water. Samples were analyzed by LC-MS/MS using appropriate MRM transitions for each analyte and internal standard (IS). Analyte/IS peak area ratios were used to determine percent compound remaining at each time point. Intrinsic clearance (Clint; expressed as mL·min^−1·mg^−1) was calculated from the first order elimination constant (k, min^−1) of test article decay and the volume of the incubation. These values were scaled to intrinsic organ clearance (Clint) using human specific scaling factors (48.8 mg microsomal protein per g liver; 25.7 g liver per kg body weight). Organ Clint was subsequently converted to hepatic clearance, HLM, (CLhep, mL·min-1·kg-1) using the well-stirred model of hepatic elimination, where Qh is human hepatic blood flow (20.7 mL·min-1·kg-1).
CLhep is the projected human clearance in the liver based on the above in vitro assay. A lower value is indicative of less compound being removed by the liver.

Sequence of LRRK2 G2019S enzyme (Q5S007 whole entry G2019S): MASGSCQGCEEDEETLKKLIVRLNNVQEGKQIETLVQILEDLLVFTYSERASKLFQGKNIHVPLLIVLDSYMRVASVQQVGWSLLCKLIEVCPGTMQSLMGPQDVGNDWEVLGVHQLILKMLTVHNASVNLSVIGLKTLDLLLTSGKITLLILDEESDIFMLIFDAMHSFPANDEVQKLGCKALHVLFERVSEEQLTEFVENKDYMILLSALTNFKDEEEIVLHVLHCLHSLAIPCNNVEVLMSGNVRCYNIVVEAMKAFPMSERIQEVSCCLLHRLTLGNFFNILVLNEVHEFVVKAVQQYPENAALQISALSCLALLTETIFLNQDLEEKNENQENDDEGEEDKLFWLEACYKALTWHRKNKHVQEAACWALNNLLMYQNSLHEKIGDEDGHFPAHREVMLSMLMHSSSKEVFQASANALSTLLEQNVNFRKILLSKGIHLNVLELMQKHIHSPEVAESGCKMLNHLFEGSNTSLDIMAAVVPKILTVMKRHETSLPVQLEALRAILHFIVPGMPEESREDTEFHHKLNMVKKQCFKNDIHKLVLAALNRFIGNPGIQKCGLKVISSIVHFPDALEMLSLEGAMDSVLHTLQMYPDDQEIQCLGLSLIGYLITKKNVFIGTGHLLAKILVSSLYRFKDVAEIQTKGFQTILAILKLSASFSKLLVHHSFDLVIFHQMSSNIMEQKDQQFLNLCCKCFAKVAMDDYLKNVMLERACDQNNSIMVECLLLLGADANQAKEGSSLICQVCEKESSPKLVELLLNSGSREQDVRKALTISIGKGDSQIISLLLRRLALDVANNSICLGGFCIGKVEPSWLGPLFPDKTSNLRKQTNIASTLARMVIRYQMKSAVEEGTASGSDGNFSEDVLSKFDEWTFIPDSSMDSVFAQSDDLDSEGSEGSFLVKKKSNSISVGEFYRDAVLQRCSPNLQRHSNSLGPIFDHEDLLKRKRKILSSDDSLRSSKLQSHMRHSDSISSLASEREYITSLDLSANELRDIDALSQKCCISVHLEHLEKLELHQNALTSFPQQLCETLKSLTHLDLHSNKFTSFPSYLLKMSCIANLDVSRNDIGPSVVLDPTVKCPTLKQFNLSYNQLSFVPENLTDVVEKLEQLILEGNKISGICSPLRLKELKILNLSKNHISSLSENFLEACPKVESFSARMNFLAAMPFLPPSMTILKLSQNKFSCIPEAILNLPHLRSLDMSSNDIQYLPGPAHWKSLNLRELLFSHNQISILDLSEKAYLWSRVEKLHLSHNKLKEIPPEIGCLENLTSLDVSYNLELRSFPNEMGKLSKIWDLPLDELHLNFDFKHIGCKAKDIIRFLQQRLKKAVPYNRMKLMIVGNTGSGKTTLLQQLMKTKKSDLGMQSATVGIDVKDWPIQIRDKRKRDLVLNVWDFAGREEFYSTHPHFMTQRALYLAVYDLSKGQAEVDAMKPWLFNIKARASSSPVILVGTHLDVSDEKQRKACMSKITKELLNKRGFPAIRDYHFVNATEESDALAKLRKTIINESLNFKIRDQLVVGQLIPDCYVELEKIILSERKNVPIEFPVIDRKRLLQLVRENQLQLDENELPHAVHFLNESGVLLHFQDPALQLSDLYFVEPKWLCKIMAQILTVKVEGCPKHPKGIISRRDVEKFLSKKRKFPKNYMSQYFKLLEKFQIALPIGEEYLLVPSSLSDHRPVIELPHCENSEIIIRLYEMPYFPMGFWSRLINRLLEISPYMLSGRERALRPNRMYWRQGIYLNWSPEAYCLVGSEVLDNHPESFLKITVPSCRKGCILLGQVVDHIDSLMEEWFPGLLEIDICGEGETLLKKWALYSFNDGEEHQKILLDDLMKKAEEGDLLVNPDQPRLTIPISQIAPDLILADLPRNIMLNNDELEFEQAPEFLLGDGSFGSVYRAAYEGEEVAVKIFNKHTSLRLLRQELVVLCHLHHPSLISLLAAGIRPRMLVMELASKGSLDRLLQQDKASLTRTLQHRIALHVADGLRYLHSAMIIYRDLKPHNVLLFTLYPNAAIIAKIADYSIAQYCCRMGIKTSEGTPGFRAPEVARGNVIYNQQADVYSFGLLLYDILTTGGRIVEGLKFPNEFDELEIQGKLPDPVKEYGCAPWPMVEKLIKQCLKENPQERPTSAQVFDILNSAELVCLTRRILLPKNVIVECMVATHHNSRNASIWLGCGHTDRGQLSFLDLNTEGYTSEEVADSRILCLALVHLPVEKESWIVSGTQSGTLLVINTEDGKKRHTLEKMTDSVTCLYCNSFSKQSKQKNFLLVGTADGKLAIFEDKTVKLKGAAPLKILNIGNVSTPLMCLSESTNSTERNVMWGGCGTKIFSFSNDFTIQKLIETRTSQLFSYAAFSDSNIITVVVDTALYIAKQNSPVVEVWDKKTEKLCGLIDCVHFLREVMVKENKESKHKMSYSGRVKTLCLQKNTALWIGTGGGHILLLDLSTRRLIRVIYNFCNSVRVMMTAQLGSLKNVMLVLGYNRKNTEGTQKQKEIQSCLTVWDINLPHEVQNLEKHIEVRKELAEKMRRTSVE

| IC50 [1] [nM] | HLM Avg [2] [mL/min/kg] | Structure (SMILES) |
| --- | --- | --- |
| 1.47 | 3.6 | CCNc1nc(Nc2cn([C@H]3C[C@H]3C(N)=O)nc2C2CC2)ncc1C(F)(F)F (single isomer, unassigned) [Example 7, (1,2-cis)-2-(3-cyclopropyl-4-((4-(ethylamino)-5-(trifluoromethyl)pyrimidin-2-yl)amino)-1H-pyrazol-1-yl)cyclopropanecarboxamide] |
| 1.41 | 2.6 | CCNc1nc(Nc2cc([C@H]3C[C@H]3C(N)=O)nn2C2CC2)ncc1C(F)(F)F [Comparative Example A, reference compound] |
